Tested on: yeast genes (level of expressed mRNA)
Experiment: DNA chip analysis of expressed mRNA of yeast genes after 2 h culture with a toxic chemical substance
Assay type: cell-based, Saccharomyces cerevisiae S288C
Conditions: for The level of expressed mRNA in the presence of chemical substance/ (ratio to absence of chemical substance): stress protein genes, DNA chip; for The level of expressed mRNA in the presence of chemical substance/ in its absence, gene YDL078C: yeast gene YDL078C
Description: Yeast (Saccharomyces cerevtisiae S288C (α SUC2mal mel gap2 CUP1)) were cultured at 25° C. on YPD medium (yeast extract 1%, polypepton 2%, glucose 2%). One of toxic chemical substances was added to the cell at logarithmic growth phase, and the cell was further cultured for two hours. Cell was cultured without any chemical substance in the same condition, and was used as control. Concentrations of the chemical substances were defined to inhibit the growth of the yeast but not lead to death.
After the completion of cultivation, the culture was centrifuged to collect the cells. To the cells, sodium acetate buffer (50 mM sodium acetate, 10 mM EDTA, 1% SDS) was added, and the mixture was shaken at 65° C. for five minutes, followed by returning to room temperature, and obtaining the supernatant, which procedure was repeated two times. To the supernatant, ½ amount of a solution of phenol/chloroform was added, and the mixture was centrifuged to give a supernatant, which was added with an equal amount of chloroform, and the mixture was centrifuged to give a supernatant. To the supernatant, an equal amount of isopropanol containing 0.3 M sodium acetate was added, and the mixture was allowed to stand at room temperature for 30 minutes, after which the mixture was centrifuged to give a sediment of the whole RNAs. Seventy % ethanol was added to the sediment, and the mixture was again centrifuged to give a sediment, which was then dried and dissolved in water. mRNA was isolated from the whole RNAs as followings. In view of the fact that a poly A chain is attached to the 3′ terminus of mRNA, a polynucleotide having a poly T structure which was immobilized on the surface of latex beads was used to trap the mRNA, and then the mRNA was washed and eluted with spine column (Oligotex-dT30<Super>mRNA Purification Kit, Takara). Reverse transcription of the mRNA was conducted with a reverse transcriptase (Super Script II Reverse Transcriptase; catalogue No. 18064-014, GibcoBRL) using fluorescence-labeled nucleotides to give cDNAs that were introduced with Cy3-dUTP or Cy5-dUTP during the reverse transcription.
The labeled cDNAs were dissolved in TE buffer (10 mM Tris-HCl/1 mM EDTA, pH8.0), and the solution was dropped on the DNA chip containing the whole genes of yeast (DNA Chip Research Inc. Japan) so that the cDNAs were hybridized on the DNA chip at 65° C. for over 12 hours. The fluoresces intensity of the DNA chip was read with a scanner, and the ratio relative to the fluorescence intensity resulting from the absence of chemical substance was estimated as the following, which is shown in Tables 1 to 9: [formula]
In the Tables, “Intensity” indicated in the rightmost column is a value of the level of expressed mRNA of each gene in control cells as divided by the average level of the expressions of the whole genes.

Structure (SMILES): COc1cc(CNC(=O)CCCCC=CC(C)C)ccc1O [(12), 8-methyl-N-vanillyl-6-nonenamide]
- level of expressed mRNA in the presence of chemical substance/in its absence (gene YOR344C): 1.3
- level of expressed mRNA in the presence of chemical substance/in its absence (gene YOR347C): 1.2
- The level of expressed mRNA in the presence of chemical substance/absence: YPL005W (gene YPL005W): 0.7
- level of expressed mRNA in the presence of chemical substance/in its absence (gene YPL017C): 1.0
- The level of expressed mRNA in the presence of chemical substance / the level in the absence of chemical substance, yeast gene YPL107W (gene YPL107W, DNA chip fluorescence ratio to control without chemical, 2 hours culture with chemical, growth-inhibiting non-lethal concentration): 0.7
- The level of expressed mRNA in the presence of chemical substance / the level in the absence of chemical substance, yeast gene YPL138C (gene YPL138C, DNA chip fluorescence ratio to control without chemical, 2 hours culture with chemical, growth-inhibiting non-lethal concentration): 0.9
- The level of expressed mRNA in the presence of chemical substance/absence: YPL150W (gene YPL150W): 1.0
- The level of expressed mRNA in the presence of chemical substance/absence: YPL151C (gene YPL151C): 0.8
- The level of expressed mRNA in the presence of chemical substance/absence: YPL152W (gene YPL152W): 0.9
- The level of expressed mRNA in the presence of chemical substance/absence: YPL168W (gene YPL168W): 0.7
- The level of expressed mRNA in the presence of chemical substance/absence: YPL180W (gene YPL180W): 0.8
- The level of expressed mRNA in the presence of chemical substance/absence: YPL188W (gene YPL188W): 0.6
- The level of expressed mRNA in the presence of chemical substance/absence: YPL221W (gene YPL221W): 0.8
- The level of expressed mRNA in the presence of chemical substance/absence: YPL225W (gene YPL225W): 0.7
- The level of expressed mRNA in the presence of chemical substance/absence: YPL249C (gene YPL249C): 0.9
- The level of expressed mRNA in the presence of chemical substance/absence: YPL260W (gene YPL260W): 0.8
- level of expressed mRNA in the presence of chemical substance/in its absence (gene YPL265W): 0.9
- level of expressed mRNA in the presence of chemical substance/in its absence (gene YPR006C): 1.1
- level of expressed mRNA in the presence of chemical substance/in its absence (gene YPR026W): 1.2
- The level of expressed mRNA in the presence of chemical substance/absence: YPR049C (gene YPR049C): 0.9
- The level of expressed mRNA in the presence of chemical substance/absence: YPR061C (gene YPR061C): 0.8
- The level of expressed mRNA in the presence of chemical substance/absence: YPR093C (gene YPR093C): 0.9
- The level of expressed mRNA in the presence of chemical substance/absence: YPR146C (gene YPR146C): 0.8
- The level of expressed mRNA in the presence of chemical substance/absence: YPR148C (gene YPR148C): 1.2
- The level of expressed mRNA in the presence of chemical substance/absence: YPR150W (gene YPR150W): 0.6
- The level of expressed mRNA in the presence of chemical substance/absence: YPR158W (gene YPR158W): 0.6
- The level of expressed mRNA in the presence of chemical substance/absence: YPR169W (gene YPR169W): 0.5
- The level of expressed mRNA in the presence of chemical substance/absence: YPR172W (gene YPR172W): 0.8
- The level of expressed mRNA in the presence of chemical substance/absence: YPR174C (gene YPR174C): 1.1
- The level of expressed mRNA in the presence of chemical substance/The level of expressed mRNA in the absence of chemical substance (yeast gene YAR010C): 1.0
- The level of expressed mRNA in the presence of chemical substance/The level of expressed mRNA in the absence of chemical substance (yeast gene YBL005W-A): 1.6
- The level of expressed mRNA in the presence of chemical substance/ (ratio to absence), gene YBL038W (yeast gene YBL038W, mitochondria-located protein genes, 2 h culture with chemical): 0.7
- The level of expressed mRNA in the presence of chemical substance/The level of expressed mRNA in the absence of chemical substance (yeast gene YBL041W): 1.6
- The level of expressed mRNA in the presence of chemical substance/The level of expressed mRNA in the absence of chemical substance (yeast gene YBL043W): 0.9
- The level of expressed mRNA in the presence of chemical substance/The level of expressed mRNA in the absence of chemical substance (yeast gene YBL078C): 3.1
- The level of expressed mRNA in the presence of chemical substance/ (ratio to absence of chemical substance) (yeast gene YBL093C): 1.1
- The level of expressed mRNA in the presence of chemical substance/ (in its absence), gene YBR036C (yeast gene YBR036C, ratio of DNA chip fluorescence intensity to that without chemical substance): 1.0
- The level of expressed mRNA in the presence of chemical substance/ (ratio to absence of chemical substance) (yeast gene YBR044C): 0.8
- The level of expressed mRNA in the presence of chemical substance/ (ratio to absence), gene YBR122C (yeast gene YBR122C, mitochondria-located protein genes, 2 h culture with chemical): 0.7
- The level of expressed mRNA in the presence of chemical substance/The level of expressed mRNA in the absence of chemical substance (yeast gene YBR214W): 1.2
- The level of expressed mRNA in the presence of chemical substance/ (ratio to absence), gene YBR251W (yeast gene YBR251W, mitochondria-located protein genes, 2 h culture with chemical): 1.1
- The level of expressed mRNA in the presence of chemical substance/ (in its absence), gene YBR298C (yeast gene YBR298C, ratio of DNA chip fluorescence intensity to that without chemical substance): 1.1
- The level of expressed mRNA in the presence of chemical substance/The level of expressed mRNA in the absence of chemical substance (yeast gene YCL020W): 1.5
- The level of expressed mRNA in the presence of chemical substance/The level of expressed mRNA in the absence of chemical substance (yeast gene YCL027W): 0.8
- The level of expressed mRNA in the presence of chemical substance/The level of expressed mRNA in the absence of chemical substance (yeast gene YCR004C): 0.8
- The level of expressed mRNA in the presence of chemical substance/ (ratio to absence), gene YCR046C (yeast gene YCR046C, mitochondria-located protein genes, 2 h culture with chemical): 1.1
- The level of expressed mRNA in the presence of chemical substance/The level of expressed mRNA in the absence of chemical substance (yeast gene YCR071C): 1.1
- The level of expressed mRNA in the presence of chemical substance/ (ratio to absence), gene YCR083W (yeast gene YCR083W, mitochondria-located protein genes, 2 h culture with chemical): 1.1
- The level of expressed mRNA in the presence of chemical substance/ (ratio to absence of chemical substance) (yeast gene YCR083W): 1.1
- The level of expressed mRNA in the presence of chemical substance/The level of expressed mRNA in the absence of chemical substance (yeast gene YCR088W): 1.3
- The level of expressed mRNA in the presence of chemical substance/The level of expressed mRNA in the absence of chemical substance (yeast gene YDL008W): 1.2
- The level of expressed mRNA in the presence of chemical substance/ in its absence, gene YDL067C (yeast gene YDL067C, energy system protein genes, 2 h culture with the chemical, ratio to control without chemical): 1.0
- The level of expressed mRNA in the presence of chemical substance/ (ratio to absence), gene YDL067C (yeast gene YDL067C, mitochondria-located protein genes, 2 h culture with chemical): 1.0
- The level of expressed mRNA in the presence of chemical substance/ in its absence, gene YDL078C (energy system protein genes, 2 h culture with the chemical, ratio to control without chemical): 0.8
- The level of expressed mRNA in the presence of chemical substance/ in its absence, gene YDL078C (ratio of DNA chip fluorescence intensity to that without chemical substance): 0.8
- The level of expressed mRNA in the presence of chemical substance/ (in its absence), gene YDL215C (yeast gene YDL215C, ratio of DNA chip fluorescence intensity to that without chemical substance): 0.8
- The level of expressed mRNA in the presence of chemical substance/The level of expressed mRNA in the absence of chemical substance (yeast gene YDL238C): 0.9
- The level of expressed mRNA in the presence of chemical substance/The level of expressed mRNA in the absence of chemical substance (yeast gene YDR055W): 1.4
